The record followed here is ChEMBL document CHEMBL1201862, “PubChem BioAssay data set” (2004).

Test systems include A549; CAKI-1; COLO 205; DU-145; HCT-116; HCT-15; KM12; LOX IMVI; NCI-H226; NCI-H23; NCI-H460; OVCAR-4; OVCAR-5; SF-268; SK-MEL-5; SK-OV-3; SN12C; SNB-19; TK-10; UO-31.
Experiment in all cases: growth of human tumour cells (NCI), 48 h

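Tested at 5 concentrations; 48 h exposure; 96-well plates; endpoints linearly interpolated, else capped at highest concentration. The concentration for 50% growth inhibition is given as GI50.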 Active and inactive are the calls of the source. No stated cut-off is given here; in the data, active = GI50 up to about 1.1 µM and inactive = higher. Some results are limits rather than exact numbers.

On to `Cc1cc([C@H](C#N)c2nc3ccccc3s2)nc(Cl)n1`, for which the GI50 in the experiment on A549 is 14.8 µM (inactive); in the experiment on CAKI-1, 4.51 µM (inactive); in the experiment with COLO 205, 2.4 µM (inactive); with DU-145, 23.7 µM (inactive); in the experiment on HCT-116 it was 3.22 µM (inactive); in the experiment on HCT-15 it was 3.66 µM. The GI50 with KM12 is 2.78 µM (inactive); in the experiment on LOX IMVI it was 2.89 µM (inactive); with NCI-H226, 3.46 µM (inactive); in the experiment with NCI-H23 it was 2.78 µM (inactive); in the experiment with NCI-H460 it was 3.45 µM (inactive); in the experiment on OVCAR-4, 5.82 µM (inactive). In addition, the GI50 with OVCAR-5 was 16.3 µM (inactive); in the experiment on SF-268, 5.01 µM (inactive); with SK-MEL-5, 1.79 µM (inactive); in the experiment on SK-OV-3 it was 5.66 µM (inactive); with SN12C, 3.42 µM (inactive); in the experiment on SNB-19 it was 6.7 µM (inactive). For the same compound, the figures for the GI50 in the experiment with TK-10 and in the experiment on UO-31 were 4.98 µM (inactive) and 4.39 µM (inactive), respectively.
Turning to `O=C1Oc2ccccc2C(=O)/C1=C/N1C(=O)CNC1=S`, the GI50 was > 100 µM (inactive) in the experiment with A549; > 100 µM (inactive) with CAKI-1; > 100 µM (inactive) in the experiment with COLO 205; > 100 µM (inactive) in the experiment on DU-145; > 100 µM (inactive) in the experiment on HCT-116; above 100 µM in the experiment with HCT-15. The GI50 was > 100 µM (inactive) in the experiment on KM12; > 100 µM (inactive) with LOX IMVI; > 100 µM (inactive) in the experiment on NCI-H226; > 100 µM (inactive) in the experiment on NCI-H23; 63 µM (inactive) in the experiment with NCI-H460; > 100 µM (inactive) in the experiment with OVCAR-4. For the same compound, the GI50 in the experiment with OVCAR-5 was > 100 µM (inactive); in the experiment on SF-268, > 100 µM (inactive); with SK-MEL-5, > 100 µM (inactive); in the experiment with SK-OV-3, 95.1 µM (inactive); in the experiment on SN12C, > 100 µM (inactive); in the experiment with SNB-19 it was > 100 µM (inactive). Moreover, the figures for the GI50 with TK-10 and with UO-31 were > 100 µM (inactive) and 23 µM (inactive), respectively.
